From patent US4839386A, “Ionic bis (Dicarboxylato) palladate (II)” (Engelhard Corporation, priority 1987, dated 1989)
“And” between values parts separate entries of the source, which are not always exact repeats. Identical values can stand only once. Like-named read-outs stand apart in the source and are kept apart here.

Assays:
[1] = tested on: S180 ascites; experiment: Anti-Tumor Screening; S180 ascites in mice (% increase in life span, survivors); assay type: in vivo, female CFW Swiss mice; conditions: for Best % ILS (Dosage): Table 4
Protocol: The compounds used in this invention were evaluated against S180 ascites in female CFW Swiss mice. The mice were weighed (average weight: 20 g), placed into cages (six mice to a cage) and on day zero the mice were inoculated with 0.2 ml of a freshly prepared saline suspension (0.15M NaC1) containing 1×10^7 tumor cells/ml or a total of 2×10^6 cells. This inoculum was freshly prepared using "transfer" mice which had been injected with tumor cells the previous week; it was obtained via the following steps (1) the removal of cells from the peritoneal cavity of the sacrificed transfer mouse, (2) alternate centrifugation and washing operations (2-3 times with cold saline) to remove blood and other components, and (3) dilution of the volume of the packed cell with saline (1:3). A final centrifugation was carried out at 1000 RPM over a two minute period. A cell count was made on a 2000-fold dilution of this 1:3 suspension by means of a Coulter Counter. A final dilution to 1×10^7 cells/ml was made based on the average count.
On day 1, solutions of the test compounds were prepared and each mouse in a set of six was injected with the same test compound at the same dosage. The doses were based on the average weight of the animals (cage weight). Also, beginning on day 1 two controls were employed containing six mice per control:
(1) Normal Control: This consisted solely of the carrier or diluent used in combination with the test compound; and
(2) Positive Control: This consisted solely of the known anti-tumor agent cis-[Pt(NH3)2 C12 ] in saline (8 mg/kg) to test the response of the biological system.
The effectiveness of a test compound was measured in terms of the % increase in life span (% ILS) of the test mice relative to the Normal Control (Calculated from the day of tumor inoculation, i.e., day zero). To standardize the test data and permit intercomparisons, the day of evaluation was arbitrarily taken as that day corresponding to twice the mean life span (or average day of death) of the control. This established a practical upper limit of 100% on the % ILS attainable. For calculation purposes the survivors on the day of evaluation were considered to have died on that day. The % ILS was calculated as follows:
% ILS=mean-life span of test mice/mean-life span of control
ILS values in excess of 50% were interpreted as being indicative of anti-tumor cell activity in animals whereas, values in excess of 75% indicated excellent activity.
The test compounds were evaluated in water.

[2] = tested on: S 180 Ascites; experiment: effective dose (ED90) and therapeutic index, S 180 ascites, method of Miller and Taiter; assay type: in vivo, mice; set-up: ED90: unit not given here; conditions: for Therapeutic Index: LD50/ED90; for ED90: dose which causes a 50% increase in life span in 90% of the test animals, determined graphically
Protocol: The effective dose (ED90), lethal dose (LD50) and therapeutic index (TI) were determined via the method of Miller and Taiter (Reported by R. A. Turner, "Screening Methods in Pharmacology", Academic Press, New York, pages 61-62 (1965)).
In this study Ed90 represents the dose which causes a 50% increase in life span (ILS) in 90% of the test animals (mice) determined graphically. The LD50 value represents the lethal dose to 50% of said animals (Therapeutic Index=LD50 /Ed90).

[3] = solubility in water at room temperature
[4] = tested on: testicular and ovarian tumors; conditions: background; cited from earlier work

## O=C([O-])C1(C(=O)[O-])CCC1.O=C([O-])C1(C(=O)[O-])CCC1.[K+].[K+].[Pd+2] [Example 6, Potassium Bis(Cyclobutanedicarboxylato)palladate(II)]
[1]; 10 mg/kg
  % ILS: -4%
  Survivors: 0 of 6
[1]; 20 mg/kg
  % ILS: 9%
  Survivors: 0 of 6
[1]; 40 mg/kg
  % ILS: 7%
  Survivors: 0 of 6
[1]; 80 mg/kg
  % ILS: -7%
  Survivors: 0 of 6
[1]; 160 mg/kg
  % ILS: 50%
  Survivors: 0 of 6
  Best % ILS (Dosage): 50%
[1]; 320 mg/kg
  % ILS: -75%
  Survivors: 0 of 6
other
  solubility in water: 200 mg/mL
[2]
  Therapeutic Index: 1.1
  ED90: 210

## CCC(C(=O)[O-])C(=O)[O-].CCC(C(=O)[O-])C(=O)[O-].[K+].[K+].[Pd+2] [Example 1, Potassium Bis(Ethylmalonato)palladate(II)]
[1]; 5 mg/kg
  % ILS: 6%
  Survivors: 0 of 6
[1]; 10 mg/kg
  % ILS: -3%
  Survivors: 0 of 6
[1]; 20 mg/kg
  Survivors: 0 of 6
[1]; 40 mg/kg
  Survivors: 0 of 6
[1]; 80 mg/kg
  Survivors: 0 of 6
[1]; 160 mg/kg
  Best % ILS (Dosage): 94%
[1]; 160 mg/kg, listed as Ex. 1
  % ILS: 94% and 55%
  Survivors: 5 of 6 and 1 of 6
[1]; 320 mg/kg, listed as Ex. 1
  Survivors: 0 of 6 and 1 of 6
[3]
  solubility in water: 70 mg/mL
[2]
  Therapeutic Index: 2.1
  ED90: 150

## cis-[Pt(NH3)2 -Cl2 ] [Positive Control, reference compound]
[1]; 8 mg/kg in saline
  Positive Control Survivors: 0 of 6 and 1 of 6 and 2 of 6 and 4 of 6
[4]
  regression of testicular and ovarian tumors (in words): singularly successful in bringing about a regression of testicular and ovarian tumors

## O=C([O-])C(=O)C(=O)[O-].O=C([O-])C(=O)C(=O)[O-].[K+].[K+].[Pd+2] [Example 2, Potassium Bis(Ketomalonato)palladate(II)]
[1]; 10 mg/kg
  % ILS: 4%
  Survivors: 0 of 6
[1]; 20 mg/kg
  % ILS: 4%
  Survivors: 0 of 6
[1]; 40 mg/kg
  % ILS: 4%
  Survivors: 0 of 6
[1]; 80 mg/kg
  % ILS: 13%
  Survivors: 1 of 6
[1]; 160 mg/kg
  % ILS: 81%
  Survivors: 5 of 6
  Best % ILS (Dosage): 81%
[1]; 320 mg/kg
  % ILS: 17%
  Survivors: 0 of 6
other
  solubility in water: 6.7 mg/mL
[2]
  Therapeutic Index: 2.0
  ED90: 200

## O=C([O-])C(O)C(=O)[O-].O=C([O-])C(O)C(=O)[O-].[K+].[K+].[Pd+2] [Example 4, Potassium Bis(Tartronato)palladate(II)]
[1]; 12.5 mg/kg
  % ILS: 1%
  Survivors: 0 of 6
[1]; 25 mg/kg
  % ILS: 12%
  Survivors: 0 of 6
[1]; 50 mg/kg
  % ILS: 11%
  Survivors: 0 of 6
[1]; 100 mg/kg
  % ILS: 68%
  Survivors: 3 of 6
[1]; 200 mg/kg
  % ILS: 76%
  Survivors: 0 of 6
  Best % ILS (Dosage): 76%
[1]; 400 mg/kg
  % ILS: 14%
  Survivors: 3 of 6
other
  solubility in water: 2 mg/mL
[2]
  Therapeutic Index: 2.1
  ED90: 190

## CC(C(=O)[O-])C(=O)[O-].CC(C(=O)[O-])C(=O)[O-].[K+].[K+].[Pd+2] [Example 3, Potassium Bis(Methylmalonato)palladate(II)]
[1]; 6.25 mg/kg
  % ILS: 11%
  Survivors: 0 of 6
[1]; 12.5 mg/kg
  % ILS: 2%
  Survivors: 0 of 6
[1]; 25 mg/kg
  % ILS: -6%
  Survivors: 0 of 6
[1]; 50 mg/kg
  % ILS: 2%
  Survivors: 0 of 6
[1]; 100 mg/kg
  % ILS: 54%
  Survivors: 2 of 6
  Best % ILS (Dosage): 54%
[1]; 200 mg/kg
  % ILS: 54%
  Survivors: 0 of 6
[1]; 400 mg/kg
  % ILS: -83%
  Survivors: 0 of 6
[3]
  solubility in water: 21 mg/mL
[2]
  Therapeutic Index: 1.1
  ED90: 160

## O=C([O-])C(=O)[O-].O=C([O-])C(=O)[O-].[K+].[K+].[Pd+2] [K2 [Pd(Oxalate)2], reference compound]
[1]; 12.5 mg/kg
  % ILS: 2%
  Survivors: 0 of 6
[1]; 25 mg/kg
  % ILS: 33%
  Survivors: 0 of 6
[1]; 50 mg/kg
  % ILS: -7%
  Survivors: 0 of 6
[1]; 100 mg/kg
  % ILS: -9%
  Survivors: 1 of 6
[1]; 200 mg/kg
  % ILS: -71%
  Survivors: 0 of 6

## O=C([O-])CC(=O)[O-].O=C([O-])CC(=O)[O-].[K+].[K+].[Pd+2] [K2 [Pd(Malonate)2]]
[1]; 10 mg/kg
  % ILS: 6% and 8%
  Survivors: 0 of 6
[1]; 20 mg/kg
  % ILS: -1% and 8%
  Survivors: 0 of 6
[1]; 40 mg/kg
  % ILS: -12%
  Survivors: 0 of 6
[1]; 80 mg/kg
  % ILS: 69% and 66%
  Survivors: 3 of 6 and 2 of 6
[1]; 160 mg/kg
  % ILS: 82% and 86%
  Survivors: 2 of 6 and 3 of 6
  Best % ILS (Dosage): 82% and 86%
[1]; 320 mg/kg
  % ILS: -74%
  Survivors: 0 of 6
[2]
  ED90: 120

## CC(C)(C(=O)[O-])C(=O)[O-].CC(C)(C(=O)[O-])C(=O)[O-].[K+].[K+].[Pd+2] [Example 7, Potasium Bis(Dimethylmalonato)palladate(II)]
[1]; 10 mg/kg
  % ILS: -15%
  Survivors: 0 of 6
[1]; 20 mg/kg
  % ILS: 0%
  Survivors: 0 of 6
[1]; 40 mg/kg
  % ILS: -8%
  Survivors: 0 of 6
[1]; 80 mg/kg
  % ILS: -11%
  Survivors: 0 of 6
[1]; 160 mg/kg
  % ILS: 61%
  Survivors: 1 of 6
  Best % ILS (Dosage): 61%
[1]; 320 mg/kg
  % ILS: 26%
  Survivors: 0 of 6
[2]
  ED90: 210

## O=C([O-])c1ccccc1C(=O)[O-].O=C([O-])c1ccccc1C(=O)[O-].[K+].[K+].[Pd+2] [Example 5, Potassium Bis(phthalato)palladate(II)]
[1]; 50 mg/kg
  % ILS: 18%
  Survivors: 0 of 6
[1]; 100 mg/kg
  % ILS: 38%
  Survivors: 1 of 6
[1]; 200 mg/kg
  % ILS: 79%
  Survivors: 2 of 6
  Best % ILS (Dosage): 79%
[1]; 400 mg/kg
  % ILS: 25%
  Survivors: 0 of 6
[3]
  solubility in water: 80 mg/mL
[2]
  Therapeutic Index: 2.3
  ED90: 220
